Data on three molecules can be found in patent US20180110785A1, “METHODS AND COMPOSITIONS FOR AMELIORATING SYMPTOMS ASSOCIATED WITH CHROMOSOMAL ABNORMALITIES” (priority 2014, published 2018).

For test [1], the system named is Sonic hedgehog (SHH) in nasal mucus. As to the kind of experiment: Sonic hedgehog in nasal mucus of hyposmic patients after oral theophylline, spectrophotometric ELISA. It counts as in vivo, human.
Test [2] has as its system patients with smell loss (hyposmia). As to the kind of experiment: Smell function (olfactometry, subjective) in hyposmic patients after oral theophylline. Type of test: in vivo, human.
In test [3] the test system is Sonic hedgehog (Shh) in parotid saliva. The test can be described thus: Sonic hedgehog in parotid saliva of patients with taste dysfunction after oral theophylline (Example 2), ELISA. Type of test: in vivo, human. Particulars: for saliva sonic hedgehog after treatment with oral theophylline: mean ± SEM.
The subject of test [4] is patients with taste dysfunction. As to the kind of experiment: Subjective taste acuity and flavor perception in hypogeusic patients after oral theophylline (Example 2). Type of test: in vivo, human. Particulars: for flavor perception, degree of improvement / taste acuity, degree of improvement: mean ± SEM. The procedure:
Shh was measured in parotid saliva of both normal subjects and in patients with taste dysfunction of multiple etiologies by use of a sensitive spectrophotometric ELISA assay. Taste dysfunction was defined clinically by both subjective changes of taste acuity and flavor perception and by impaired gustometry. Patients were treated with oral theophylline 200-800 mg daily for 2-10 months with saliva Shh and taste function measured at intervals of 2-8 months.
Subjective statements of taste acuity loss and loss of flavor perception were quantitated by use of a scale from 0-100 with 100 reflecting total loss of taste acuity or flavor perception, 0 reflecting no loss and a number between 0-100 reflecting appropriate degree of loss. […] Mean±SEM of loss degree was measured among all patients and each pathology initiating taste dysfunction.
Saliva Shh and measurements of taste function by use of subjective responses of acuity and flavor perception and in olfactometry was measured at intervals of 2-6 months in these patients.

The test system of test [5] is Sonic hedgehog (Shh) in parotid saliva. As to the kind of experiment: Saliva sonic hedgehog in patients with taste dysfunction after oral theophylline (Example 3), ELISA. It counts as in vivo, human.
For test [6], the system named is patients with smell loss (hyposmia). Particulars: prior hyposmic patients treated with oral theophylline (earlier studies); cited from earlier work.
The test system of test [7] is patients with taste dysfunction. As to the kind of experiment: Gustometry (DT, RT, ME for four tastants) before and after theophylline (Example 3).
Test [8] deals with ShhN (sonic hedgehog) in nasal mucus. The test can be described thus: ShhN nasal mucus vs PDE inhibitor comparison (Example 10). It counts as in vivo, human.
The mark [9] stands for this setting: patients with taste dysfunction.
The mark [10] stands for this setting: theophylline treated (81), mean ± SEM.

Several values for one entry are separate records, joined by “and”; a condition that tells them apart may be missing. Equal entries are not always repeated. Entries after “also recorded” stand apart in the source; their conditions may differ. Where two headings read alike, the source gives them in different places.

In the case of `Cn1c(=O)c2[nH]cnc2n(C)c1=O` [Theophylline, theophylline], the “sonic hedgehog concentration in nasal mucus, treatment with oral theophylline” value in test [1] (PIHH patients (10), mean ± SEM) is 70735 ± 5751^a,a1 (10) pg/ml; in test [1] (all hyposmic patients (30 in Table 3, 31 in Table 4), mean ± SEM) it was 49191 ± 1710^c,a1 (30) pg/ml and 49191 ± 1710^a (31) pg/ml; in test [1] (allergic rhinitis patients (11), mean ± SEM) it was 24460 ± 2610^a,a1 (11) pg/ml; in test [1] (congenital smell loss patients (9), mean ± SEM), 3825 ± 474^a,a1 (9) pg/ml; in test [1] (hyposmic men (17), oral theophylline 400-800 mg daily for 2-10 months, mean ± SEM), 47952 ± 3085^a,a1 (17) pg/ml; in test [1] (hyposmic women (13), oral theophylline 400-800 mg daily for 2-10 months, mean ± SEM) it was 3859 ± 303^a,a1 (13) pg/ml. The “sonic hedgehog concentration in nasal mucus, treatment with oral theophylline” value in test [1] (post general anesthesia patient (1)) was 57 (1) pg/ml. Moreover, the “increase of nasal mucus SHH over the untreated state” value is listed as 320 times in test [1] (men, oral theophylline); 48 times in test [1] (patient post anesthesia, oral theophylline); 46 times in test [1] (patients with PIHH, oral theophylline); “over 719 times” in test [1] (patients with allergic rhinitis, oral theophylline); “over 21 times” in test [1] (patients with congenital smell loss, oral theophylline); 17 times in test [1] (women, oral theophylline). For the same molecule, the “SHH levels in nasal mucus versus untreated state” value in test [1] (patients with hyposmia, oral theophylline) is recorded as “significantly increased SHH levels in nasal mucus”. Besides, the “smell improvement, patient number” value in test [2] (PIHH (10)) was 8; in test [2] (all treated patients (31), oral theophylline) it was 19; in test [2] (allergic rhinitis (11)), 5; in test [2] (congenital (9)), 5; in test [2] (post general anesthesia (1)), 1. Moreover, the “smell improvement, percent of patients” value was 80% in test [2] (PIHH (10)); 60% and 61% in test [2] (all treated patients, oral theophylline); 45% in test [2] (allergic rhinitis (11)); 56% in test [2] (congenital (9)); 100% in test [2] (post general anesthesia (1)); “over 50%” in test [6]. Also, the “saliva sonic hedgehog after treatment with oral theophylline” value in test [3] (hypogeusic patients after treatment (66), 200-1000 mg, 2-10 months) turned out to be 199 ± 20 pmol/mL; in test [3] (men (61) after treatment), 180 ± 15 pmol/mL; in test [3] (women (58) after treatment) it was 213 ± 33 pmol/mL. In test [3] (setting [9]), the “Shh in parotid saliva after oral theophylline” value was “increased saliva Shh; also recorded: increased in parotid saliva to levels above those in normal subjects or in untreated patients”. For the same molecule, in test [4] (after oral theophylline), the “patients with improvement in both subjective taste acuity and flavor perception” value is “about 60%”. Moreover, the entries for the “flavor perception, improvement number” value in test [4] (all patients (79)), in test [4] (men (38)) and in test [4] (women (41)) were 45, 22 and 23, respectively. The “flavor perception, percent improved” value in test [4] (all patients (79)) came to 63%; in test [4] (men (38)), 58%; in test [4] (women (41)), 54%. Besides, the entries for the “taste acuity, percent improved” value in test [4] (all patients (79)), in test [4] (men (38)) and in test [4] (women (41)) were 63%, 55% and 59%, respectively. Besides, the “taste acuity, improvement number” value in test [4] (all patients (79), oral theophylline) is on record as 45; in test [4] (men (38)) it was 21; in test [4] (women (41)) it was 24. In addition, the entries for the “flavor perception, degree of improvement” value in test [4] (all patients (79)), in test [4] (men (38)) and in test [4] (women (41)) were 24 ± 4%, 18 ± 4% and 36 ± 6%, respectively. For the same molecule, the “taste acuity, degree of improvement” value in test [4] (all patients (79)) is 28 ± 4^+ %; in test [4] (men (38)), 20 ± 5%; in test [4] (women (41)) it was 35 ± 6%. Besides, the “taste function after theophylline” value in test [4] (setting [9]) was “improved both subjective taste function and gustometry”. Further, the “saliva sonic hedgehog after oral theophylline” value was 210 ± 12 pmol/mL in test [5] (PIHH (27), mean ± SEM); 212 ± 14^+ pmol/ml in test [5] (allergic rhinitis (26), mean ± SEM); 151 pmol/mL in test [5] (anesthesia induced (2)); 132 ± 23 pmol/mL in test [5] (congenital (10), mean ± SEM); 115 ± 15 pmol/mL in test [5] (head injury (14), mean ± SEM); 145 pmol/mL in test [5] (post radiation (1)). Moreover, the “increase of saliva Shh levels by theophylline” value in test [5] (setting [9]) is reported as about 2 fold. The molecule further returned a saliva sonic hedgehog in test [5] (theophylline treated patients (81), mean ± SEM) of 102 ± 10 pmol/mL. In addition, in test [7] (setting [9]), the “taste / gustometric function after theophylline” value is “improved subjectively in taste function; also recorded: improved gustometric functions of treated patients”. In test [7] (setting [10]), the “HCl DT” value turned out to be 3.6 ± 0.2. The “HCl ME” value in test [7] (setting [10]) was 54 ± 5. For the same molecule, in test [7] (setting [10]), the “HCl RT” value was 3.7 ± 0.3. For the same molecule, the “NaCl DT (detection threshold)” value in test [7] (setting [10]) worked out at 3.4 ± 0.2. Also, the “NaCl ME (magnitude estimation)” value in test [7] (setting [10]) is 58 ± 5. Besides, the “NaCl RT (recognition threshold)” value in test [7] (setting [10]) came to 3.6 ± 0.2. Further, the “sucrose DT” value in test [7] (setting [10]) is reported as 3.3 ± 0.2. Besides, in test [7] (setting [10]), the “sucrose ME” value was 49 ± 5. Also, the “sucrose RT” value in test [7] (setting [10]) is 3.6 ± 0.2. In test [7] (setting [10]), the “urea DT” value was 3.9 ± 0.3. The “urea ME” value in test [7] (setting [10]) is listed as 54 ± 5. For the same molecule, in test [7] (setting [10]), the “urea RT” value came to 3.9 ± 0.3.
Regarding `O=C1CCc2cc(OCCCCc3nnnn3C3CCCCC3)ccc2N1` [cilostazol], in test [8] (Patient ID No. 7, 100 mg cilostazol once per day orally for 4 months), the sonic hedgehog levels in nasal mucus, mean came out at 769 pg/mL.
In turn, `O=C(Nc1c(Cl)cncc1Cl)c1ccc(OC(F)F)c(OCC2CC2)c1` [roflumilast] registered a sonic hedgehog levels in nasal mucus in test [8] (Patient ID No. 11, 500 micrograms daliresp (roflumilast) orally once per day for 4 months) of 6660 pg/mL.
